Here are results for five molecules from patent US20090220507A1, “INHIBITION OF EXTRACELLULAR SIGNAL-REGULATED KINASE 1/2 AS A TREATMENT FOR CARDIAC HYPERTROPHY AND HEART FAILURE” (priority 2005, published 2009).

Entries after “also recorded” stand apart in the source; their conditions may differ. * marks the point of attachment. Myristoyl = CCCCCCCCCCCCCC(=O)*

The subject of one assay is ERK1/2. Description: Western blot of phosphorylated ERK1/2 in isoproterenol-stimulated NRVMs. In kind it is cell-based, rat. As to conditions: for isoproterenol activation of ERK1/2 (phosphorylation): all time points (5, 30, 60 minutes, 6, 24, 33, 48 hours). The procedure:
(§1) Materials. Isoproterenol (Sigma) was dissolved in sterile H2O containing 1 mmol/L Ascorbic Acid, and the concentrations used are described in the results section.
(§2) Cell Culture. Neonatal rat cardiac ventricular myocytes (NRVMs) were cultured as previously described (Simpson et al., 1982; Simpson and Savion, 1982; Long et al., 1992; Waspe et al., 1990). Briefly, cells were isolated by trypsin digestion from the ventricles of 1-3 day old rats. Isolation procedures were done in a very gentle manner and cells were plated at a concentration of 1.5×10^5 cells per well in 12-well tissue culture plates in medium containing serum. 24 hours later the media was changed to serum free media containing insulin, transferin, bovine serum albumin, vitamin B12 and penicillin. Wells were pre-coated with a 0.1% gelatin solution and dried in a hood under UV lights. In addition, all media solutions were supplemented with Hepes (pH 7.5) to a final concentration of 20 mmol/L in order to buffer the pH of the media.
ERK1/2 Western Blots. Phosphorylated ERK1/2 protein extraction was performed essentially as described in Headley et al. (2004).
ERK1/2 activation is dependent on calcineurin and on CaMKII.
(Immunoblotting shows a protein as a band on a membrane.)

In assay [1] the test system is β1-AR-mediated fetal gene expression in NRVMs. As to the kind of experiment: RNase protection assay of isoproterenol-induced fetal gene program mRNA in NRVMs. The assay is classed as cell-based, rat. How it is done: as §1, §2
RNase Protection Assay. Total RNA was extracted by TRIZol (Invitrogen) and used in RNase protection assays (RPA). RPAs were performed essentially as described (Patten et al., 1996; Kinugawa et al., 2001). Briefly, 5 μg of total RNA was hybridized against probes specific to skeletal α-actin, SRCA2A, α-MyHC, β-MyHC, ANF, BNP and GAPDH. RNase protection experiments were performed using the RPAII kit (Ambion). RPA experiments were performed from mRNA extracted from a minimum of three different experiments.
RNase Protection Assay: Total RNA was extracted by TRIZol (Invitrogen) and used in RNase protection assays (RPA). RPAs were performed essentially as described (Patten et al., 1996; Kinuguwa et al., 2001). Briefly, 5 μg of total RNA was hybridized against probes specific to skeletal α-actin, SRCA2A, α-MyHC, β-MyHC, ANF, BNP and GAPDH. RNase protection experiments (RPAs) were performed using the RPAII kit (Ambion). RPA experiments were performed from mRNA extracted from a minimum of three different experiments.

Setting [2] is: inhibitor 1 hour before isoproterenol, RPA, mRNA normalized to GAPDH.
The mark [3] stands for this setting: inhibitor alone, without isoproterenol.
Setting [4] is: inhibitor 1 hour after ISO treatment, mRNA extracted 48 hours later, RPA.

In the case of “14-22 Amide myristoylated (Myristoyl-GRTGRRNAI-NH2; SMILES CCCCCCCCCCCCCC(=O)NCC(=O)N[C@@H](CCCNC(=N)N)C(=O)N[C@H](C(=O)NCC(=O)N[C@@H](CCCNC(=N)N)C(=O)N[C@@H](CCCNC(=N)N)C(=O)N[C@@H](CC(N)=O)C(=O)N[C@@H](C)C(=O)N[C@H](C(N)=O)[C@@H](C)CC)[C@@H](C)O; UniProt P61925 15-23, looked up, fragment) [PKI14-22]”, the “isoproterenol activation of ERK1/2 (phosphorylation)” value in the assay with ERK1/2 (inhibitor pre-treatment) is reported as “did not prevent”.
Turning to `NCCOB(c1ccccc1)c1ccccc1` [AFB-30, 2-APB], in assay [1] (setting [2]), the “isoproterenol-induced changes in endogenous mRNA fetal gene program induction (all changes in fetal gene expression)” value is “completely abrogated”.
As for `COc1ccc(S(=O)(=O)N(CCO)c2ccccc2CN(C)C/C=C/c2ccc(Cl)cc2)cc1` [KN-93], in assay [1] (setting [2]), the “isoproterenol-associated down-regulation (repression) of SRCA2a” value is “not capable of preventing”, the “isoproterenol-associated down-regulation (repression) of α-MyHC” value is on record as “prevented”, the “isoproterenol-associated up-regulation (induction) of ANP” value is listed as “prevented” and the “isoproterenol-associated up-regulation of BNP” value was “prevented”. Further, in assay [1] (setting [2]), the “isoproterenol-associated up-regulation of skeletal α-actin” value was “prevented” and the “isoproterenol-induced changes in endogenous mRNA fetal gene program induction (all changes in fetal gene expression)” value is recorded as “prevented”. Moreover, in assay [1] (setting [3]), the “ANP mRNA levels” value is reported as “decrease”, the “SRCA2a mRNA levels” value is given as “decrease” and the “β-MyHC mRNA levels” value is on record as “decrease”. Also, the “activation of ERK1/2 in response to isoproterenol (phosphorylation)” value in the assay on ERK1/2 (inhibitor pre-treatment, 33 and 48 hour isoproterenol time points) is listed as “blocked”.
On to `N#CC(=C(/N)Sc1ccccc1N)/C(C#N)=C(\N)Sc1ccccc1N` [U0126], for which, in assay [1] (setting [4]), the “ISO-mediated down-regulation of αMyHC” value was “prevents” and the “ISO-mediated up-regulation of the fetal isoforms (fetal gene expression)” value was “prevents”. Besides, in assay [1] (setting [2]), the “isoproterenol-associated down-regulation (repression) of SRCA2a” value is on record as “does not prevent”, the “isoproterenol-associated down-regulation (repression) of α-MyHC” value is “blocks; also recorded: prevents”, the “isoproterenol-associated up-regulation (induction) of ANP” value is reported as “blocks” and the “isoproterenol-associated up-regulation of BNP” value is “blocks”. Besides, in assay [1] (setting [2]), the “isoproterenol-associated up-regulation of skeletal α-actin” value is “blocks” and the “up-regulation (activation) of β-MyHC in response to isoproterenol stimulation” value is “prevents”. For the same molecule, the “ISO-mediated up-regulation of the fetal isoforms” value in assay [1] (inhibitor 1 hour prior to ISO treatment, mRNA extracted 48 hours later, RPA) is listed as “prevents”. The “isoproterenol activation of ERK1/2 (phosphorylation)” value in the assay with ERK1/2 (inhibitor pre-treatment) is listed as “completely abrogates”.
As for `CC(C)NCC(O)c1ccc(O)c(O)c1` (centres unmarked) [isoproterenol], the “ERK phosphorylation as a surrogate marker for activation” value in the assay with ERK1/2 (isoproterenol stimulation, 5 minutes, 33 hours and 48 hours) is listed as “increased”.
